Read-outs that look alike come from different tables or passages of the source.

Assay in all cases: microbe, parasite or virus in culture
What all share (format): cell-based, Hepatitis C virus (HCV)
Details in all cases: Replicon Assay A

Test [1] concerns HCV replicon 1A. The gist of the method:
(§1)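 Read-out is replicon RNA per cell by real-time RT-PCR, normalised to cyclophilin mRNA amplified in the same well. Cells were exposed to compound for 3 days at 2000 cells/well in medium with 5% fetal bovine serum and 0.5% DMSO.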

Test [2] has as its system HCV replicon 2B. The gist of the method: as §1
Test [3] concerns HCV replicon 1AY93H. A digest of the protocol:
as §1

Where [4] appears, read: read-out: 2B IC50, HCV replicon 2B.
Setting [5] is: read-out: 1A Y93H IC50, HCV replicon 1A Y93H.
The mark [6] stands for this setting: read-out: 1A Y93H IC50, replicon 1AY93H.
[7] abbreviates: Hepatitis C virus, HCV replicon 1A.
Setting [8] is: Hepatitis C virus, read-out: 2B IC50, HCV replicon 2B.
The mark [9] stands for this setting: Hepatitis C virus, read-out: 1A Y93H IC50, HCV replicon 1A Y93H.

What is called IC50 is the midpoint of a concentration-inhibition curve. As to `COC(=O)N[C@H](C(=O)N1C[C@H](F)C[C@H]1c1ncc(-c2ccc3c(c2)OC(c2ccc(C)s2)n2c-3cc3cc(-c4cnc([C@@H]5C[C@H]6C[C@H]6N5C(=O)[C@@H](NC(=O)OC)C(C)C)[nH]4)ccc32)[nH]1)C(C)C` (single isomer, unassigned) [Compound 706], the IC50 was determined as 0.023 nM in test [1] (HCV replicon 1A), 4.61 nM in test [2] (setting [4]) and 2.45 nM in test [3] (setting [5]).
In the case of `COC(=O)NC(C(=O)N1CCC[C@H]1c1ncc(-c2ccc3c(c2)cc2n3C(c3ccc(C4CC4)s3)Oc3cc(-c4cnc([C@@H]5C[C@@H](F)CN5C(=O)[C@@H](NC(=O)OC)C(C)C)[nH]4)cc(F)c3-2)[nH]1)C(C)(C)F` (single isomer, unassigned) [Compound 115], the IC50 in test [1] (replicon 1A) was determined as 0.0011 nM; in test [2] (read-out: 2B IC50, replicon 2B), 9.84 nM; in test [3] (setting [6]), 0.05 nM.
Regarding `CCc1ccc(C2Oc3cc(-c4cnc([C@@H]5CCCN5C(=O)C(NC(=O)OC)C5CCOC(C)(C)C5)[nH]4)cc(F)c3-c3cc4cc(-c5cnc([C@@H]6CCCN6C(=O)C(NC(=O)OC)C6CCOC(C)(C)C6)[nH]5)ccc4n32)s1` (single isomer, unassigned) [Compound 292], the IC50 in test [1] (replicon 1A) is 0.0027 nM; in test [2] (read-out: 2B IC50, replicon 2B), 0.106 nM; in test [3] (setting [6]), 0.044 nM.
In the case of `COC(=O)NC(C(=O)N1CCC[C@H]1c1ncc(-c2ccc3c(c2)cc2n3C(c3ccc(C(C)C)s3)Oc3cc(-c4cnc([C@@H]5CCCN5C(=O)[C@@H](NC(=O)OC)C(C)C)[nH]4)cc(F)c3-2)[nH]1)C1CCOC(C)(C)C1` (single isomer, unassigned) [Compound 242], the IC50 was 0.0011 nM in test [1] (replicon 1A); 4.42 nM in test [2] (read-out: 2B IC50, replicon 2B); 0.75 nM in test [3] (setting [6]).
Consider `COC(=O)N[C@H](C(=O)N1CCC[C@H]1c1ncc(-c2cc(F)c3c(c2)OC(c2cc(F)c(C4CC4)s2)n2c-3cc3cc(-c4cnc([C@@H]5CCCN5C(=O)[C@@H](NC(=O)OC)C(C)C)[nH]4)ccc32)[nH]1)C(C)C` (single isomer, unassigned) [Compound 71], for which the IC50 amounted to 0.0013 nM in test [1] (Hepatitis C virus, replicon 1A); 3.85 nM in test [2] (read-out: 2B IC50, replicon 2B); 1.09 nM in test [3] (setting [6]).
Regarding `CCc1ccc(C2Oc3cc(-c4cnc([C@@H]5C[C@H]6C[C@H]6N5C(=O)[C@@H](NC(=O)OC)C(C)C)[nH]4)cc(F)c3-c3cc4cc(-c5cnc([C@@H]6C[C@H]7C[C@H]7N6C(=O)[C@@H](NC(=O)OC)C(C)C)[nH]5)ccc4n32)s1` (single isomer, unassigned) [Compound 50], the IC50 in test [1] (Hepatitis C virus, replicon 1A) was found to be 0.0014 nM; in test [2] (Hepatitis C virus, read-out: 2B IC50 (nM), replicon 2B) it was 1.39 nM; in test [3] (Hepatitis C virus, read-out: 1A Y93H IC50 (nM), replicon 1AY93H), 0.0284 nM.
`COC(=O)NC(C(=O)N1CCC[C@H]1c1ncc(-c2ccc3c(c2)cc2n3C(c3ccc(C4CC4)s3)Oc3cc(-c4cnc([C@@H]5CCCN5C(=O)[C@@H](NC(=O)OC)C(C)C)[nH]4)cc(F)c3-2)[nH]1)C1C2COCC21` (single isomer, unassigned) [Compound 338]: the IC50 in test [1] (Hepatitis C virus, replicon 1A) was found to be 0.0024 nM; in test [2] (read-out: 2B IC50, replicon 2B), 1.52 nM; in test [3] (setting [6]), 0.357 nM.
As for `COC(=O)N[C@H](C(=O)N1C[C@H](F)C[C@H]1c1nc(-c2ccc3c(c2)cc2n3C(c3cc(C)c(C)s3)Oc3cc(-c4cnc([C@@H]5C[C@@H](F)CN5C(=O)[C@@H](NC(=O)OC)C(C)C)[nH]4)ccc3-2)c[nH]1)C(C)C` (mixture of isomers) [Compound 711], the IC50 in test [1] (setting [7]) came to 0.027 nM; in test [2] (setting [8]) it was 0.029 nM; in test [3] (setting [9]) it was 0.12 nM.
For `CCc1ccc(C2Oc3cc(-c4cnc([C@@H]5CCCN5C(=O)[C@@H](NC(=O)OC)C(C)C)[nH]4)cc(C)c3-c3cc4cc(-c5cnc([C@@H]6CCCN6C(=O)C(NC(=O)OC)C6C[C@@H](C)O[C@@H](C)C6)[nH]5)ccc4n32)s1` (single isomer, unassigned) [Compound 544], the IC50 in test [1] (HCV replicon 1A) was 0.00833 nM; in test [2] (setting [4]), 0.0319 nM; in test [3] (setting [5]), 0.29 nM.
In the same order, the values of `COC(=O)N[C@H](C(=O)N1CCC[C@H]1c1ncc(-c2cc(F)c3c(c2)OC(c2cc(C)c(C)s2)n2c-3cc3cc(-c4cnc([C@@H]5C[C@@H](F)CN5C(=O)[C@@H](NC(=O)OC)C(C)C)[nH]4)ccc32)[nH]1)C(C)C` (single isomer, unassigned) [Compound 515] are 0.0103 nM, 18.7 nM and 6.54 nM.
For `COC(=O)NC(C(=O)N1CCC[C@H]1c1ncc(-c2cc(F)c3c(c2)OC(c2ccc(C4CC4)s2)n2c-3cc3cc(-c4cnc([C@@H]5CCCN5C(=O)[C@@H](NC(=O)OC)C(C)C)[nH]4)ccc32)[nH]1)C1CCOC(C)(C)C1` (single isomer, unassigned) [Compound 217], the IC50 in test [1] (replicon 1A) turned out to be 0.003 nM; in test [2] (read-out: 2B IC50, replicon 2B), 0.39 nM; in test [3] (setting [6]) it was 0.18 nM.
Regarding `CCN(CC)[C@@H](C(=O)N1C[C@H](F)C[C@H]1c1nc(-c2ccc3c(c2)cc2n3C(c3cc(C)c(C)s3)Oc3cc(-c4c[nH]c([C@@H]5C[C@@H](F)CN5C(=O)[C@@H](NC(=O)OC)C(C)C)n4)ccc3-2)c[nH]1)c1ccccc1` (mixture of isomers) [Compound 724], the IC50 in test [1] (setting [7]) is 0.063 nM; in test [2] (setting [8]) it was 15.3 nM; in test [3] (setting [9]) it was 0.37 nM.
With `CC[C@@H]1CC(C(NC(=O)OC)C(=O)N2CCC[C@H]2c2ncc(-c3ccc4c(c3)cc3n4C(c4ccc(C5CC5)s4)Oc4cc(-c5cnc([C@@H]6CCCN6C(=O)[C@@H](NC(=O)OC)C(C)C)[nH]5)cc(F)c4-3)[nH]2)C[C@H](CC)O1` (single isomer, unassigned) [Compound 287], the IC50 stood at 0.0082 nM in test [1] (replicon 1A); 0.49 nM in test [2] (read-out: 2B IC50, replicon 2B); 0.074 nM in test [3] (setting [6]).
With `CC[C@@H]1CC(C(NC(=O)OC)C(=O)N2CCC[C@H]2c2ncc(-c3ccc4c(c3)cc3n4C(c4ccc(C5CC5)s4)Oc4cc(-c5cnc([C@@H]6CCCN6C(=O)[C@@H](NC(=O)OC)C(C)C)[nH]5)cc(F)c4-3)[nH]2)C[C@H](CC)O1` (single isomer, unassigned) [Compound 288], the IC50 in test [1] (replicon 1A) amounted to 0.0046 nM; in test [3] (setting [6]) it was 16 nM.
In the same order, the values of `COC(=O)NC(C(=O)N1CCC[C@H]1c1ncc(-c2cc(F)c3c(c2)OC(c2ccc(C4CC4)s2)n2c-3cc3cc(-c4cnc([C@@H]5CCCN5C(=O)C(NC(=O)OC)C5C[C@@H](C)O[C@@H](C)C5)[nH]4)ccc32)[nH]1)C1C[C@@H](C)O[C@@H](C)C1` (single isomer, unassigned) [Compound 304] are 0.0455 nM and 16.8 nM.
Regarding `CCc1ccc(C2Oc3cc(-c4cnc([C@@H]5CCCN5C(=O)[C@@H](NC(=O)OC)C(C)C)[nH]4)cc(F)c3-c3cc4cc(-c5cnc([C@@H]6C[C@H]7C[C@H]7N6C(=O)C(NC(=O)OC)C6CCOC(C)(C)C6)[nH]5)ccc4n32)s1` (single isomer, unassigned) [Compound 198], the values for the IC50 in test [1] (replicon 1A) and in test [3] (setting [6]) were 0.077 nM and 14.3 nM, respectively.
For the compound `COC(=O)NC(C(=O)N1CCC[C@H]1c1ncc(-c2ccc3c(c2)cc2n3C(c3ccc(C4CC4)s3)Oc3cc(-c4cnc([C@@H]5C[C@@H](F)CN5C(=O)[C@@H](NC(=O)OC)C(C)C)[nH]4)cc(F)c3-2)[nH]1)C(C)(C)F` (single isomer, unassigned) [Compound 113], the IC50 in test [1] (replicon 1A) was 0.0428 nM; in test [3] (setting [6]) it was 3.92 nM.
Consider `COC(=O)N[C@H](C(=O)N1CCC[C@H]1c1ncc(-c2cc(F)c3c(c2)OC(c2ccc(CC(C)(C)OC)s2)n2c-3cc3cc(-c4cnc([C@@H]5CCCN5C(=O)[C@@H](NC(=O)OC)C(C)C)[nH]4)ccc32)[nH]1)C(C)C` (single isomer, unassigned) [Compound 843], for which the IC50 amounted to 0.0022 nM in test [1] (HCV replicon 1A) and 0.329 nM in test [3] (HCV replicon 1A Y93H, read-out: 1A Y93H IC50).
Turning to `COC(=O)N[C@H](C(=O)N1C[C@H](F)C[C@@H]1c1ncc(-c2ccc3c(c2)OC(c2cc4ccccc4s2)n2c-3cc3cc(-c4ncc([C@@H]5C[C@@H](F)CN5C(=O)[C@@H](NC(=O)OC)C5CCOCC5)[nH]4)ccc32)[nH]1)C1CCOCC1` (mixture of isomers) [Compound 814], the figures for the IC50 in test [1] (setting [7]) and in test [3] (setting [9]) were 0.1 nM and 0.055 nM, respectively.
In the case of `COC(=O)NC(C(=O)N1[C@@H]2C[C@@H]2C[C@H]1c1ncc(-c2ccc3c(c2)cc2n3C(c3ccc(C4CC4)s3)Oc3cc(-c4cnc([C@@H]5CCCN5C(=O)[C@@H](NC(=O)OC)C(C)C)[nH]4)cc(F)c3-2)[nH]1)C1C[C@@H](C)O[C@@H](C)C1` (single isomer, unassigned) [Compound 274], the figures for the IC50 in test [1] (replicon 1A) and in test [3] (setting [6]) were 0.022 nM and 7.87 nM, respectively.
`COC(=O)NC(C(=O)N1[C@@H]2C[C@@H]2C[C@H]1c1ncc(-c2ccc3c(c2)cc2n3C(c3cc4c(s3)CCC4)Oc3cc(-c4cnc([C@@H]5CCCN5C(=O)[C@@H](NC(=O)OC)C(C)C)[nH]4)cc(F)c3-2)[nH]1)C(C)C` (single isomer, unassigned) [Compound 660]: the results for the IC50 in test [1] (HCV replicon 1A) and in test [3] (setting [5]) were 0.00338 nM and 1.04 nM, respectively.
As for `COC(=O)NC(C(=O)N1CCC[C@H]1c1ncc(-c2ccc3c(c2)cc2n3C(c3ccc(C4CC4)s3)Oc3cc(-c4cnc([C@@H]5CCCN5C(=O)[C@@H](NC(=O)OC)C(C)C)[nH]4)cc(F)c3-2)[nH]1)C1CCOC(C)(C)C1` (single isomer, unassigned) [Compound 224], the IC50 in test [1] (replicon 1A) was 0.048 nM; in test [3] (setting [6]), 8.88 nM.
`COC(=O)N[C@H](C(=O)N1CCC[C@H]1c1ncc(-c2cc(F)c3c(c2)OC(c2cc4ccccc4s2)n2c-3cc3cc(-c4cnc([C@@H]5C[C@H]6C[C@H]6N5C(=O)[C@@H](NC(=O)OC)C(C)C)[nH]4)ccc32)[nH]1)C(C)C` (single isomer, unassigned) [Compound 614]: the IC50 in test [1] (setting [7]) amounted to 0.0015 nM; in test [3] (setting [5]) it was 2.21 nM.

The values are drawn from patent US20160257697A1, “THIOPHENE-SUBSTITUTED TETRACYCLIC COMPOUNDS AND METHODS OFUSE THEREOF FOR THE TREATMENT OF VIRAL DISEASES” (priority 2013, published 2016).
